Test results from US11059815B2, “Synthesis of small molecule histone deacetylase 6 degraders, compounds formed thereby, and pharmaceutical compositions containing them” (Wisconsin Alumni Research Foundation, priority 2018, dated 2021).

Tests used:
HDAC6 = target: T1, HDAC6 (Homo sapiens, UniProt Q9UBN7); experiment: In-cell ELISA of HDAC6 protein level in MM1S cells; format: cell-based; details: 1 nM to 3 μM, 6 h
T1 construct: an in-cell ELISA was used to analyze the HDAC6 content in MM1S cells; endogenous in cells; host or cells: MM1S (ATCC CRL-2974)
T1 sequence (Q9UBN7 1-1215): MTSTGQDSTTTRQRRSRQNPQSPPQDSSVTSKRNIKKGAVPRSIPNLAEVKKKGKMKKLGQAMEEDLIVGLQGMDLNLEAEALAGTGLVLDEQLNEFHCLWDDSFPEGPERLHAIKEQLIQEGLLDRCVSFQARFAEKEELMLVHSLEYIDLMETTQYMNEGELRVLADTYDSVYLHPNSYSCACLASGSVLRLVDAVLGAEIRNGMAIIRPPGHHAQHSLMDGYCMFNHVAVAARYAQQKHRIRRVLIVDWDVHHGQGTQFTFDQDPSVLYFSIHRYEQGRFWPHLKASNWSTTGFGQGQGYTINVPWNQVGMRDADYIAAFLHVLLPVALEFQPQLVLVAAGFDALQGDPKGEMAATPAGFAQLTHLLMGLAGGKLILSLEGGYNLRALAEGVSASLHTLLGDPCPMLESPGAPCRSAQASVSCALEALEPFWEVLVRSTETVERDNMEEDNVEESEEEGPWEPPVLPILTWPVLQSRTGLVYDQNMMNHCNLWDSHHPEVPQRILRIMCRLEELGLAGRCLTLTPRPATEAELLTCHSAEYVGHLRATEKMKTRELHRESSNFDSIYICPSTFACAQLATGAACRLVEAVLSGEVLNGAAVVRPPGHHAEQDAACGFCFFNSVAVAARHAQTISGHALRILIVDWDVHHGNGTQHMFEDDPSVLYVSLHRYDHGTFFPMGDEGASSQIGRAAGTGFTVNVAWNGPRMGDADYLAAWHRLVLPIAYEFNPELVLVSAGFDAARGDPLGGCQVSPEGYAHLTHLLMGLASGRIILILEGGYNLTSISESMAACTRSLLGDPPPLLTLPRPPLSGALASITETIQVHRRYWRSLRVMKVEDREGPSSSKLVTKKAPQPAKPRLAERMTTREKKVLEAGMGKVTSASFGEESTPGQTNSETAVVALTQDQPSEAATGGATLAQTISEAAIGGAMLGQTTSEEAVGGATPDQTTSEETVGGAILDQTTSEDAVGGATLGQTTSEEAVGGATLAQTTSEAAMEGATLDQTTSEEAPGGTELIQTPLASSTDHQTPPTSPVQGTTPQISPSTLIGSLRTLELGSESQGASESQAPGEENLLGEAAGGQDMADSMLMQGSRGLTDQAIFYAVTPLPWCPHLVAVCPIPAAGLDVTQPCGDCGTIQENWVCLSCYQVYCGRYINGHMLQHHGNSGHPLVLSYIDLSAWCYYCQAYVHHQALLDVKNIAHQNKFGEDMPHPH

Caspase-3 and PARP = experiment: Cleavage of Caspase-3 and PARP in MM1S; format: cell-based, human; details: 48 h treatment, data not shown
Description: Single treatment or co-treatment was performed as combined therapy (1 μM) for 72 hours in MM1S cells. […] However, the single treatment of 12d improved about 19% (P=0.0017) and 11% (P=0.0213) growth inhibition comparing with the combination sets of 13+15 (1:1) and pomalidomide+Next-A (1:1), respectively. To further confirm the observed enhancement, the anti-proliferation in response to 12d was studied from 0.3 nM to 3 μM. This single treatment was compared with dual treatment of 13 and 15 to rule out the potential complication derived from cell permeability issue. Degrader 12d lowered the bottom line (minimal proliferation) of curve over 20% although its IC50 was […] consequentially.
When the cells reached 90% confluence, they were harvested and plated 1×10^6 cells per well in 6-well plate. After overnight seeding, the cells were treated with a solution of compounds or vehicle in culture medium. The culture medium was removed after treatment and then washed twice with cold PBS. […] Protein concentration was measured by using the Pierce BCA protein assay (Thermo Fisher Scientific). […] The Immunoblot was generated by ChemiDoc MP Imaging Systems (Bio-Rad) and analyzed by Image J software (only available for download online at https://imagej.net/Downloads). […]

acetylated histone H3 = experiment: Western blot of acetylated histone H3 in MM1S cells; format: cell-based, human
From the text: FIGS. 12A, 12B, and 12C are a series of western blots showing that degrader 12d selectively promotes HDAC6 degradation in MM1S cells.
To further examine the selectivity of the new generation of HDAC6 degraders, compound 12d was compared to SAHA, Next-A, degrader 1 and pan-inhibitor 2 for change of acetylated a-tubulin and acetylated histone H3.
When the cells reached 90% confluence, they were harvested and plated 1×10^6 cells per well in 6-well plate. After overnight seeding, the cells were treated with a solution of compounds or vehicle in culture medium. The culture medium was removed after treatment and then washed twice with cold PBS. To obtain whole cell lysate, all cells were treated with RIPA lysis buffer (25 mM Tris, pH 7-8, 150 mM NaCl, 0.1% SDS, 0.5% sodium deoxycholate, 1% Triton X-100, protease inhibitor cocktail (Roche, 1 tablet per 10 mL) and 1 mM PMSF) on ice for 10 minutes. Supernatant was collected after spinning down at 16,000 g at 4° C. for 15 minutes. Protein concentration was measured by using the Pierce BCA protein assay (Thermo Fisher Scientific). […] The Immunoblot was generated by ChemiDoc MP Imaging Systems (Bio-Rad) and analyzed by Image J software (only available for download online at https://imagej.net/Downloads). […]

Row | DC50 (HDAC6; read-out: DC50 (Part 2)) [nM] | Dmax (HDAC6; MM1.S, read-out: Dmax (Part 2)) [%] | cleavages of Caspase-3 and PARP (Caspase-3 and PARP) | Structure (SMILES) | change of acetylated histone H3 (acetylated histone H3)
1 | 2.2 | 85.6 |  | CCCCN(Cc1ccc(C(=O)NO)cc1)C(=O)Nc1ccc(OCCCCCn2cc(CNc3cccc4c3C(=O)N(C3CCC(=O)NC3=O)C4=O)nn2)cc1 (stereo not shown) [Compound 2] | 
2 |  |  | dose-dependent | CCCCN(Cc1ccc(C(=O)NO)cc1)C(=O)Nc1ccc(OCCCCCn2cc(CNc3cccc4c3C(=O)N(C3CCC(=O)NC3=O)C4=O)nn2)cc1 (stereo not shown) [Compound 12d, 4-((1-butyl-3-(4-((5-(4-(((2-(2,6-dioxopiperidin-3-yl)-1,3-dioxoisoindolin-4-yl)amino)methyl)-1H-1,2,3-triazol-1-yl)pentyl)oxy)phenyl)ureido)methyl)-N-hydroxybenzamide] | No increase
